Measurements from patent US8710104B2, “Catecholic butanes and use thereof for cancer therapy” (Triact Therapeutics, Inc., priority 2008, dated 2014).

Assays:
H1299 NSCLC cells [1] = assay: proliferation of H1299 NSCLC cells; type: cell-based
[2] = molecular target: T1, kinase domain of the IGF-1R (Homo sapiens, UniProt P08069); assay: RTK activity ELISA, IGF-1R kinase domain; type: biochemical; details: ATP 10 μM, IRS-1 substrate peptide 0.2 μM, 45 minute reaction
T1 construct: recombinant proteins representing the kinase domain of the IGF-1R or EGFR (Cell Signaling Technology, Danvers, Mass.); purchased Cell Signaling Technology, Danvers, Mass
T1 sequence (P08069 999-1274 limits assumed): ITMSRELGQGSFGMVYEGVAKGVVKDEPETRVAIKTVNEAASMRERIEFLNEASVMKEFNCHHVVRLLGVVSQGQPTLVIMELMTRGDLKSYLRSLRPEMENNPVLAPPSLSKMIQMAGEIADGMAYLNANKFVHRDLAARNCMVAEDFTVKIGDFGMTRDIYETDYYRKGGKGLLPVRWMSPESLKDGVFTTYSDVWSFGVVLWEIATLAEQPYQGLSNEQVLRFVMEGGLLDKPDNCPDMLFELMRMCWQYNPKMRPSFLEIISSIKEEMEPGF
Procedure: (§1) Inhibition of lipoxygenase activity was determined by use of a lipoxygenase inhibitor screening assay kit (Cayman Chemicals, Ann Arbor, Mich.). […] LOX activity was determined by the amount of hydroperoxides produced, as quantified by colorimetric readout. Inhibition of RTK activity was determined by ELISA as follows. […] The reaction was stopped with 50 mM EDTA, and biotin-conjugated substrate was captured on a 96-well streptavidin-coated plate. Tyrosine phosphorylation of captured substrate was determined by incubation with anti-phosphotyrosine antibody conjugated to HRP (Santa Cruz Biotechnology, Santa Cruz, Calif.) and colorimetric readout on a 96 well plate reader.

[3] = molecular target: T2, kinase domain of the EGFR (Homo sapiens, UniProt P00533); assay: RTK activity ELISA, EGFR kinase domain; type: biochemical; details: ATP 10 μM, PTP1B substrate peptide 0.2 μM, 45 minute reaction
T2 construct: recombinant proteins representing the kinase domain of the IGF-1R or EGFR (Cell Signaling Technology, Danvers, Mass.); purchased Cell Signaling Technology, Danvers, Mass
T2 sequence (P00533 712-979 limits assumed): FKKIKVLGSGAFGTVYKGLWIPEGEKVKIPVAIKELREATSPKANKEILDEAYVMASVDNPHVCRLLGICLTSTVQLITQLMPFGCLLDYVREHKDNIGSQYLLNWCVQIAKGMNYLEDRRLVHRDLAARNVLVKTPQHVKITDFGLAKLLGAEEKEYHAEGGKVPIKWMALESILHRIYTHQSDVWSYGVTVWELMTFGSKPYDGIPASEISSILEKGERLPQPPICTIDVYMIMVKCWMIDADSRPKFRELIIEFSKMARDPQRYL
Procedure: as §1

[4] = tested on: H1975 NSCLC cells expressing EGFR T790M mutation; assay: proliferation of Iressa-resistant H1975 NSCLC cells; type: cell-based; details: 10 μM TT-100, 3 days
H1975 NSCLC cells = assay: soft agar colony formation, H1975; type: cell-based; details: 5 μM or 30 μM TT-100, 8 days; reduced more at higher dose
Procedure: (§2) Colony formation was assessed and compared with the control cells grown in the absence of TT-100.

H1299 NSCLC cells [5] = assay: soft agar colony formation, H1299; type: cell-based; details: 5 μM or 30 μM TT-100, 8 days; reduced more at higher dose
Procedure: as §2

[6] = tested on: subcutaneous HER2 breast tumors (MCNeuA cells); assay: MCNeuA syngeneic breast cancer model, tumor growth; type: in vivo, MMTVneu transgenic mice; details: thrice weekly
Procedure: (§3) MCNeuA cells were implanted in MMTVneu transgenic mice to induce tumor growth. […] Tumor growth was monitored and tumor size was measured at various time points. […] IGF-1R and HER2 phosphorylation were measured by ELISA.

IGF-1R = molecular target: T3, IGF-1R (Mus musculus, UniProt Q60751); assay: IGF-1R phosphorylation in excised breast tumors by ELISA; type: in vivo, MMTVneu transgenic mice; details: tumor excised on day 28, 24 hrs after the final treatment
T3 construct: from tissue; host or cells: excised subcutaneous MCNeuA breast tumours from MMTVneu transgenic mice
T3 sequence (Q60751 31-1373): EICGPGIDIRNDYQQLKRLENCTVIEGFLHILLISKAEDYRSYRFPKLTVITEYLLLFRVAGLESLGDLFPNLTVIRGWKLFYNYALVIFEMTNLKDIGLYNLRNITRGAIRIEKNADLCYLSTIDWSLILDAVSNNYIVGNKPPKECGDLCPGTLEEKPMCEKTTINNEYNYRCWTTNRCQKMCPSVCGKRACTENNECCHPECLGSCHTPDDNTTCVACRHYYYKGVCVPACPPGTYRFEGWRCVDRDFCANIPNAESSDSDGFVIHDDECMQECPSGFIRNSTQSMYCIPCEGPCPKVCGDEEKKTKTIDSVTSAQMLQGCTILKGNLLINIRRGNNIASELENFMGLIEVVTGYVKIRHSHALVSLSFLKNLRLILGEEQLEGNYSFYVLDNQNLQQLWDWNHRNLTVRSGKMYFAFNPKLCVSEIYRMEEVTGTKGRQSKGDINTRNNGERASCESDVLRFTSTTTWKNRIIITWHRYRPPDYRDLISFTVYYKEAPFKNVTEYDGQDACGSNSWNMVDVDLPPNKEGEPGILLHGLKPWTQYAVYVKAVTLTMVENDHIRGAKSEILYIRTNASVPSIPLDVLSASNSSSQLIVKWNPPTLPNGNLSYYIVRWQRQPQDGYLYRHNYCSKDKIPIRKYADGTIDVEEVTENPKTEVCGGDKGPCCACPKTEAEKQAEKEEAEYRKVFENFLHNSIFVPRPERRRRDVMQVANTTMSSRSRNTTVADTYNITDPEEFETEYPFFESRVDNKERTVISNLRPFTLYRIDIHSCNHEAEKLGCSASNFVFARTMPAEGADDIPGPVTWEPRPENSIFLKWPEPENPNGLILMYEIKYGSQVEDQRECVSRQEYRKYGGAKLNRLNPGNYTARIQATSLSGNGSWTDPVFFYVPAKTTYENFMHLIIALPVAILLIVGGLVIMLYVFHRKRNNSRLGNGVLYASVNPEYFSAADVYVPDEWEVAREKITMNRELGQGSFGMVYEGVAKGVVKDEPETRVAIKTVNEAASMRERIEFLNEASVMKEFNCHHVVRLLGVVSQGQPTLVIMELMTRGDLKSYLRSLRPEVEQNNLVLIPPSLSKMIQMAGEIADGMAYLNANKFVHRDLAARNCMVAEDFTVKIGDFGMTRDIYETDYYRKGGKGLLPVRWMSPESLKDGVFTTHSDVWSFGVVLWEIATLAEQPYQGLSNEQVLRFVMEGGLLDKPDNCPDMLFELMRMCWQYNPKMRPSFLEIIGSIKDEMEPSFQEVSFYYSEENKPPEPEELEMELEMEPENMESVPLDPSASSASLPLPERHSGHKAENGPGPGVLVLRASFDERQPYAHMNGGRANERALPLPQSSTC
Procedure: as §3

HER2 = HER2 phosphorylation in excised breast tumors by ELISA; type: in vivo, MMTVneu transgenic mice; details: tumor excised on day 28, 24 hrs after the final treatment
Procedure: as §3

ovarian cancer = ovarian cancer patients; topotecan about 1.5 mg/m^2 i.v. days 1-5 of a 21-day course
Description: This example describes a randomized, blinded, placebo-controlled, multicenter, Phase II study designed to provide a preliminary assessment of the safety and efficacy of combining NDGA with topotecan in patients with ovarian cancer. Approximately about 100—about 800 patients are enrolled, with about 50—about 400 patients being assigned to a treatment group and about 50—about 400 patients assigned to a placebo group. The trial will consist of the administration of intravenous repeating doses of NDGA as described above in Example 11 combined with topotecan at about 1.5 mg/m^2 by intravenous infusion on days 1-5 of a 21-day course, with courses repeating throughout the study. Control patients are administered topotecan with placebo. […] Additional outcome measures are as follows:
Primary outcome measure: progression-free survival.

COc1cc2ncnc(Nc3ccc(F)c(Cl)c3)c2cc1OCCCN1CCOCC1 [Iressa, Gefitinib, reference compound]
proliferation (percent growth of the control cells), Iressa alone (H1299 NSCLC cells [1]; 1 μM Iressa, 3 days): resistant

CC(Cc1ccc(O)c(O)c1)C(C)Cc1ccc(O)c(O)c1 (stereo not drawn) [TT-100, nordihydroguaiaretic acid]
inhibition of tyrosine kinase activity of purified IGF-1R [2]: directly inhibits
inhibition of tyrosine kinase activity of purified EGFR [3]: directly inhibits
reduction of proliferation (percent growth of the control cells) [4]: approximately 50%
proliferation (percent growth of the control cells), TT-100 alone (H1299 NSCLC cells [1]; 10 μM or 20 μM TT-100, 3 days, especially at 20 μM): inhibited the proliferation
colony formation in soft agar (H1975 NSCLC cells): inhibited colony formation
colony formation in soft agar (H1299 NSCLC cells [5]): inhibited colony formation
tumor growth (tumor size) ([6]; 37.5 mg/kg i.p.): inhibited the growth
tumor growth (tumor size) ([6]; 100 mg/kg by gavage (oral)): inhibited the growth
IGF-1R receptor phosphorylation compared to vehicle-treated control (IGF-1R): significantly inhibited
HER2 receptor phosphorylation compared to vehicle-treated control (HER2): significantly inhibited

CC[C@@]1(O)C(=O)OCc2c1cc1n(c2=O)Cc2cc3c(CN(C)C)c(O)ccc3nc2-1 [topotecan]
progression free survival (goal of the study) (ovarian cancer): 3-6 months
